Data reported in US10246488B2, “Use of inhibitory peptides for the treatment of inflammatory diseases” (Yeda Research and Development Co. Ltd., priority 2013, dated 2019).
Ends that are not written are not given here. * marks the point of attachment. Myristoyl = CCCCCCCCCCCCCC(=O)*

Experiments:
[1] = molecular target: T1, interaction of JNK1/2 and p38α/β with Imp7 (Homo sapiens, UniProt O95373); experiment: Co-immunoprecipitation of MAPKs with importins from extracts of treated HeLa cells; assay type: cell-based; settings: for interaction of p38 with Imp7 (CoIP): HeLa cells pre-incubated with modified peptide 2 hours, anisomycin 0.5 μg/ml 15 min; for Imp7/9 interactions of the MAPKs examined (JNK1/2 and p38α/β), Co-IP: HeLa cells, peptide 10 μM applied prior to stimulation, Anisomycin 0.5 μg/ml
T1 construct: endogenous in cells; host or cells: HeLa
T1 sequence (O95373 whole entry): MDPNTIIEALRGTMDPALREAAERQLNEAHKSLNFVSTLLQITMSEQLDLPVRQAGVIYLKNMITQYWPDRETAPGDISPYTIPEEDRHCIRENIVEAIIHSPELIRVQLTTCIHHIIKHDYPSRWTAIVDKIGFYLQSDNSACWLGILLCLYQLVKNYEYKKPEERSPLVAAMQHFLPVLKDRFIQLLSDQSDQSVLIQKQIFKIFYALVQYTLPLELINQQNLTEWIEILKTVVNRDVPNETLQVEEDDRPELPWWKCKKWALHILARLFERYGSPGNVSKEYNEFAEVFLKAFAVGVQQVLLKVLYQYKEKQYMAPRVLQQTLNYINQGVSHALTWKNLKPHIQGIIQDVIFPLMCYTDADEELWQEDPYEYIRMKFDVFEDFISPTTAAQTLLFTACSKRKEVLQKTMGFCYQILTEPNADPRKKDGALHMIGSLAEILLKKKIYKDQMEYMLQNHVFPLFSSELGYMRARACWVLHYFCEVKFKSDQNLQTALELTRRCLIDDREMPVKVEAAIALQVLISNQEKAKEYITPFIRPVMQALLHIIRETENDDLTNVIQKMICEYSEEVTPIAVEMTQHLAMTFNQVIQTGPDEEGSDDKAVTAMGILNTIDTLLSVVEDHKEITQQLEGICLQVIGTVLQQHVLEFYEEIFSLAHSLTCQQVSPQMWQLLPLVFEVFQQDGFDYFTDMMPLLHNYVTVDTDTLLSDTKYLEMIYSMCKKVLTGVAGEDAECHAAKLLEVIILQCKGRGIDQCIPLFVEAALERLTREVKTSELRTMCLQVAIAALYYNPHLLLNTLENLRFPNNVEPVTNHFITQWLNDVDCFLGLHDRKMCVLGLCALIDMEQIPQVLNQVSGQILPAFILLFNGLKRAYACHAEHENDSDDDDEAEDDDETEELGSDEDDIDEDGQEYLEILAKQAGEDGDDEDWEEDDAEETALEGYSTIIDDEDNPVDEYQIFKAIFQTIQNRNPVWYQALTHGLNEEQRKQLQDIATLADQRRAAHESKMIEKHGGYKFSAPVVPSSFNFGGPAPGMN
Description: (§1) HeLa cells were grown on slides to 70% confluence, serum starved (0.1% FBS, 16 hrs), and then either incubated with the inhibitory peptide (Peptide, 10 μM) or scrambled peptide (Scr peptide, 10 μM), cells were then treat with Anisomycin (Anis, 0.5 μg/ml) or left untreated (NT). Cells were fixed, and stained with anti JNK1, JNK2, p38α or p38β Abs as indicated, and DAPI to detect nuclei. The slides were visualized using a fluorescent microscope. […] HeLa cells were grown to 70% confluence, serum starved (0.1% FBS, 16 hrs), and then either incubated with the inhibitory peptide (Peptide, 10 μM), scrambled peptide (Scr peptide, 10 μM), or DMSO, followed by treatment with Anisomycin (Anis, 0.5 μg/ml) or mock control (NT). Cell extracts were then subjected to Co-IP with anti JNK1, JNK2, p38α, p38β Abs. The interacting Imp7 was detected by Western blot with the indicated anti Imps Abs. Amount of IPed MAPKs was detected by the anti JNK1, JNK2, p38α and p38β Abs as indicated.
(A) Myristiolated peptide was modified (replacement of 3 residues to alanin) Myr-KPERYQNLSPVGSGA—SEQ ID NO: 9; Myr-KPERYQNLSPVAAAA—SEQ ID NO: 10. (B) Hela cells were pre-incubated with modified peptide (2 hours) then either stimulated with anisomycin (Anis, 0.5 μg/ml, 15 min) or left untreated. Cell extracts were then subjected to CoIP with anti p38a . The interacting Imp7 or IPed p38 were detected by Western blot with indicated Abs.
Co-Immunoprecipitation: HeLa cells were grown to subconfluency, serum-starved (0.1% FBS for 16 h) and then stimulated or treated with other drugs. Cell extracts were produced as previously described and incubated for 2 hours (4° C., with rotation) with A/G-agarose beads (Santa Cruz Biotechnology) pre-linked with specific Abs (1 hrs, 23° C.). The bound A/G beads were washed three times with ice-cold washing buffer. The IPed beads were then resuspended with 1.5× sample buffer and boiled; the resolved proteins were analyzed by Western blotting with the indicated Abs.
CoIP: Cell extracts were produced and incubated for 2 hr (4° C., with rotation) with A/G-agarose beads pre-linked with specific Abs (1 hr, 23° C.). The bound A/G beads were washed, resuspended (1.5× sample buffer), boiled and subjected to Western blotting.

[2] = system: MAPKs; experiment: Western blot of stimulation-dependent activation of MAPKs in HeLa cells; assay type: cell-based; settings: HeLa cells pre-incubated with peptide, Anisomycin 0.5 μg/ml or TPA 250 nM
Description: HeLa cells were grown to 70% confluence, serum starved and pre-incubated with either new peptide (NP), peptide or scrambled peptide and then either stimulated with Anisomycin (Anis 0.5 μg/ml), TPA (250 nM) or left untreated (NT). Cell extracts were produced and subjected to Western blot analysis with the indicated Abs.

[3] = system: JNK1/2 and p38α/β; experiment: Immunofluorescence of stimulated nuclear translocation of JNK1/2 and p38α/β in HeLa cells; assay type: cell-based; settings: for stimuli-dependent nuclear translocation of JNK1/2 and p38α/β: HeLa cells, peptide 10 μM applied prior to stimulation, Anisomycin 0.5 μg/ml
Description: FIGS. 2A-2C illustrate that Imp3, 7 and 9 are required for JNK and p38 translocation and induced transcription. (A) Si RNAs of Imp3, 7, 9, but not Imp5, inhibit the stimulated JNK and p38 nuclear translocation. HeLa cells were grown on cover slides to 30% confluence. si RNAs of the indicated Imps and si Control supplied by the company (si Scr, negative control) were then transfected to the cells using Dharmafect according to the manufacturer's instructions. Forty eight hrs after transfection, the cells were serum starved, then either stimulated with Anisomycin (0.5 μg/ml, 15 min), or left untreated (NT) as indicated. The cells were then fixed, stained using the indicated (left) anti MAPK Abs and visualized using a fluorescent microscope. (B) Quantification of JNKs/p38s nuclear localization prior and upon stimulation. Data shown represents mean±S.E. The significance of Imp3 vs. Imp7/Imp9 (*) was p<0.0003. The significance of stimulated Imp3/7/9 vs Scr was p<0.00001 (C) Si RNA of Imp3, 7, 9 inhibit the activation of downstream transcription factor targets of JNKs/p38s. HeLa cells were transfected with si RNAs of the indicated Imps and si control supplied by the manufacturer (si Scr, negative control) using Dharmafect according to the manufacturer instructions. Forty eight hrs after transfection, the cells were serum starved, and then stimulated with Anisomycin (Anis 0.5 μg/ml) for the indicated times or left untreated (NT). Cell extracts were subjected to a Western blot analysis with anti pJUN, pMEF2A, pATF2, indicated Imps, and tubulin Abs.
as §1, with “indicated. […]” for “indicated.”
FIGS. 19A-19C illustrate that myristoylated peptides inhibit the stimulation dependent nuclear translocation of p38. […] The nuclei were detected using DAPI and slides were visualized using a spinning disc confocal microscope (Zeiss, ×100 magnification). […]

[4] = system: DSS-induced Colitis; experiment: DSS-induced colitis model; assay type: in vivo; settings: male C57BL mice, 15 mg/Kilo I.V every 48 hours, DSS 1.25% in drinking water, 7 days, compared with control peptide
Description: FIGS. 17A-17C illustrate the use of inhibitory peptide as a potential therapeutic agent in colitis model. 21 male C57BL mice treated (I.V every 48 hours) with either peptide (15 mg/Kilo), scramble peptide (15 mg/Kilo) or DMSO (2%). Colitis was induced using DSS (1.25% in drinking water) and mice were sacrificed 7 days post induction. (A-C). Colitis was evaluated using endoscopic imaging and scored for the number of lesions in the colon and weight of mice.
In vivo experiment: 21 male C57BL mice were weighed then injected (I.V) with either peptide (15 mg/Kilo), scramble peptide (15 mg/Kilo) or DMSO (2%). Twenty-four hours post injection drinking water of the mice was replaced with water containing DSS (1.25%), peptide, scramble peptide or DMSO were injected every forty-eight hours. Mice were sacrificed seven days post replacement of drinking water, and colitis was assessed using endoscopy and weight of mice.

[5] = listed as 14 amino acid myristoylated peptide

Myr-KPERYQNLSPVAAAA (Myristoyl-KPERYQNLSPVAAAA) [myristoylated peptide modified by replacement of 3 residues to alanin]
interaction of p38 with Imp7 (CoIP) [1]: blocks the interaction | interaction of p38 with Imp7 (CoIP) ([1]; listed as newly designed peptide): inhibited | stimulation-dependent activation (kinase activity) of MAPKs [2]: without affecting | stimulation-induced nuclear translocation of JNK and p38 MAPKs ([3]; HeLa cells pre-incubated with peptide, Anisomycin 0.5 μg/ml 15 min, spinning disc confocal microscope): prevented

Myr-KPERYQNLSPVGSGA (Myristoyl-KPERYQNLSPVGSGA)
DSS-induced Colitis (average weight loss and number of lesions in the colon) [4]: reduced DSS-induced Colitis

Myr-PERYQNLSPVGSGA (Myristoyl-PERYQNLSPVGSGA) [14 amino acid myristoylated peptide based on residues 21-34 of p38α]
Imp7/9 interactions of the MAPKs examined (JNK1/2 and p38α/β), Co-IP [1]: prevented | Imp7/9 interactions of the MAPKs examined (JNK1/2 and p38α/β), Co-IP [1, 5]: prevented | Imp7/9 interactions of the MAPKs examined (JNK1/2 and p38α/β), Co-IP ([1]; listed as inhibitory peptide): inhibits the interaction | stimuli-dependent nuclear translocation of JNK1/2 and p38α/β [3]: prevented the nuclear translocation | stimuli-dependent nuclear translocation of JNK1/2 and p38α/β [3, 5]: prevented the nuclear translocation | stimuli-dependent nuclear translocation of JNK1/2 and p38α/β ([3]; listed as inhibitory peptide): inhibits the stimuli-dependent nuclear translocation
